Literature values in patent US20250261634A1, “LIQUID HERBICIDAL COMPOSITIONS” (priority 2021, published 2025).

Test system: weeds
Conditions: in vivo

CP(=O)(O)CC[C@H](N)C(=O)O (single isomer, unassigned) [L-isomer]
herbicidal activity relative to the racemate: twice that of the racemate
